These results are taken from ChEMBL document CHEMBL5729608, “Oxazolidinone antibiotic compounds and process of preparation” (2023).

For the data set, the target named is Voltage-gated inwardly rectifying potassium channel KCNH2 (Homo sapiens, UniProt Q12809). Put plainly: hERG Inhibition Assay: Compounds were solubilised to 100 mM in DMSO before dilution in HBPS to 300 μM. 6-Point concentration-response curves were generated using 3.16-fold serial dilutions from the top test concentration. Procedure: Electrophysiological recordings were made from a Chinese Hamster Ovary cell line stably expressing the full-length hERG potassium channel. Single cell ionic currents were measured in whole-cell patch clamp configuration at room temperature (21-23° C.) using the QPatch HTX platform (Sophion). Intracellular solution contained (mM): 120 KF, 20 KCl, 10 EGTA, 10 HEPES and was buffered to pH 7.3. The extracellular solution (HEPES-buffered physiological saline, HBPS) contained (mM): 145 NaCl, 4 KCl, 2 CaCl2, 1 MgCl2, 10 HEPES, 10 glucose, buffered to pH7.4. Cells were clamped at a holding potential of −80 mV. Cells were stepped to +20 mV for 2 s then −40 mV for 3s before returning to the holding potential. This sweep was repeated 10 times at 10 s intervals. hERG currents were measured from the tail step and referenced to the holding current. (hERG is a cardiac potassium channel; its block is linked to QT prolongation.)
Voltage-gated inwardly rectifying potassium channel KCNH2, sequence (Q12809 whole entry): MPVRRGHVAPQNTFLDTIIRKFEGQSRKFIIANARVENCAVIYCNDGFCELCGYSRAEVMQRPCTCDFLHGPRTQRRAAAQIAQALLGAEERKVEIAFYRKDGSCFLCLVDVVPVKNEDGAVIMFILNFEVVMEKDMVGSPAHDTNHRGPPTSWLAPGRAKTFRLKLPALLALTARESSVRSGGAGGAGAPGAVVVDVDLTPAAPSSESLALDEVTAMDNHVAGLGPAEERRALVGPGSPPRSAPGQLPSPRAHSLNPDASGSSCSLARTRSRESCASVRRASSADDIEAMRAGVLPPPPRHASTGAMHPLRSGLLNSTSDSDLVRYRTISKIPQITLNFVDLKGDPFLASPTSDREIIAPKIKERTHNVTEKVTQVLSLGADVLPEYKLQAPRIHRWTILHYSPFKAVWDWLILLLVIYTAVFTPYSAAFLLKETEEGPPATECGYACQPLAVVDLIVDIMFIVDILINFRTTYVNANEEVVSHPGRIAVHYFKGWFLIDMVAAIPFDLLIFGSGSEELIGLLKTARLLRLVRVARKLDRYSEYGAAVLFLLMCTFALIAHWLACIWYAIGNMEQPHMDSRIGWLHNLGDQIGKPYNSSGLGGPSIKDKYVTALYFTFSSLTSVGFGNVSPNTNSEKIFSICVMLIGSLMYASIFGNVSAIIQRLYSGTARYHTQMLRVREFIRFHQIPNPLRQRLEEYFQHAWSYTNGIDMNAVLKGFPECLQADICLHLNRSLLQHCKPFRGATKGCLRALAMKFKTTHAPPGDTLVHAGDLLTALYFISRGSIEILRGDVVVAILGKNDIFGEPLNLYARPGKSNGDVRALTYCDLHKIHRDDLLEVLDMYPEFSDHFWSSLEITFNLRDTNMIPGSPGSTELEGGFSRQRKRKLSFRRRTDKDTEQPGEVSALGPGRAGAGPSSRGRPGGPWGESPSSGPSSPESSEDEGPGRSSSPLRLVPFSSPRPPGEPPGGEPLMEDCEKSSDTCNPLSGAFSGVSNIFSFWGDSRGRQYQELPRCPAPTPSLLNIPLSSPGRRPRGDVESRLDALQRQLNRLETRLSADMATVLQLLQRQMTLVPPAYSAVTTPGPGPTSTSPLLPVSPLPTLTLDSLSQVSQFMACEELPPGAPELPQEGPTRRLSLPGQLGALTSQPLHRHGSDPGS

As a reminder, the IC50 is the concentration at which inhibition is half-maximal. A lower IC50 goes with inhibition by little substance.

Consider `Cn1c(=O)cnc2cc(F)c(OCCNC[C@H]3CN(c4cnc5c(n4)NC(=O)CO5)C(=O)O3)nc21`, for which half-maximal inhibition (IC50) was put at 98 µM. This lies in the double-digit micromolar range.
